Data published in article PMC5681660, “Reduced hepatitis B and D viral entry using clinically applied drugs as novel inhibitors of the bile acid transporter NTCP” (Scientific Reports, 2017).
Where a name gives a salt, the structure may show the parent alone. Read-outs that look alike come from different tables or passages of the source.

Assays:
[1] = biological target: T1, human NTCP (Homo sapiens, UniProt Q14973); test: Screening fluorescent competitive Myrcludex B-FITC binding assay (96-well, 10 µM drug)
T1 sequence (Q14973 1-349): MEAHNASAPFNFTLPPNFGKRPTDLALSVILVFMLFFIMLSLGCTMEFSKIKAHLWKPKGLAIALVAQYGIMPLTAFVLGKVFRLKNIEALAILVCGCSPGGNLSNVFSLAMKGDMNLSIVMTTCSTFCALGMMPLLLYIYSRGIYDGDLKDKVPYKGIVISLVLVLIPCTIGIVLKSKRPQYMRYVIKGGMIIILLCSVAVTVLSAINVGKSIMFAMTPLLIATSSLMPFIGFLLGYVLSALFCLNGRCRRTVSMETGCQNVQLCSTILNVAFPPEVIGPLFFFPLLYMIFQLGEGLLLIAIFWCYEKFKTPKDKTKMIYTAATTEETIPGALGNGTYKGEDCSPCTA

[2] = biological target: T1, human NTCP; test: Screening taurocholate uptake assay (96-well, [14C]taurocholate, 10 µM drug)
[3] = Prestwick library screen, Myrcludex B-FITC binding, 10 µM drug
[4] = Prestwick library screen, taurocholate uptake, 10 µM drug
[5] = ranking score beside the functional and binding assay B-scores of the screen
[6] = Prestwick library screen, 10 µM drug, B-score of Myrcludex B-FITC binding
[7] = Prestwick library screen, 10 µM drug, B-score of taurocholate uptake
[8] = combined ranking from functional and binding assay B-scores
[9] = screen, 10 µM drug, Myrcludex B-FITC binding
[10] = combined ranking from functional and binding screening assays
[11] = screen, 10 µM drug, taurocholate uptake

Compound | B-score binding assay [1, 6] | B-score functional assay [2, 7] | Ranking score [2, 8] | B-score binding assay [1, 9] | Ranking score [2, 10] | B-score functional assay [2, 11] | also measured
COc1ccccc1Oc1c(NS(=O)(=O)c2ccc(C(C)(C)C)cc2)nc(-c2ncccn2)nc1OCCO [Bosentan] |  |  |  |  |  |  | B-score binding assay [1, 3]: 0.008; B-score functional assay [2, 4]: 0.07; Ranking score [2, 5]: 688.78
CN(C)CCOC1=Cc2ccccc2Sc2ccc(Cl)cc21 [Zotepine] | 1.26 | 0.249 | 950.167 |  |  |  | 
Bacitracin | 0.785 | 1.013 | 1026.66 |  |  |  | 
O=P1(N(CCCl)CCCl)NCCCO1 (stereo not drawn) [Cyclophosphamide] |  |  |  |  |  |  | B-score binding assay [1]: 1.227; B-score functional assay [2]: 0.493; Ranking score [2]: 990.921
CN(C)[C@@H]1C(O)=C(C(N)=O)C(=O)[C@@]2(O)C(O)=C3C(=O)c4c(O)cccc4[C@@](C)(O)[C@H]3C[C@@H]12 [Tetracycline hydrochloride] |  |  |  |  |  |  | B-score binding assay [1, 3]: 0.201; B-score functional assay [2, 4]: 0.067; Ranking score [2, 5]: 755.57
Cc1cn([C@H]2C[C@H](N=[N+]=[N-])[C@@H](CO)O2)c(=O)[nH]c1=O [Zidovudine, AZT] | 0.429 | 1.119 | 985.737 |  |  |  | 
CC(C)C(=O)Nc1ccc([N+](=O)[O-])c(C(F)(F)F)c1 [Flutamide] |  |  |  | 0.039 | 383.15 | -1.233 | 
Cc1onc(-c2c(Cl)cccc2Cl)c1C(=O)N[C@@H]1C(=O)N2[C@@H]1SC(C)(C)[C@@H]2C(=O)[O-].O.[Na+] [Dicloxacillin sodium salt hydrate] | 0.373 | 0.63 | 908.983 |  |  |  | 
C[C@]12CC[C@H](O)C[C@H]1CC[C@@H]1[C@@H]2C[C@@H](O)[C@]2(C)[C@@H](C3=CC(=O)OC3)CC[C@]12O [Digoxigenin] |  |  |  | -1.199 | 283.718 | -0.468 | 
CCN1CCCC1CNC(=O)c1cc(S(N)(=O)=O)ccc1OC (stereo not drawn) [Sulpiride] |  |  |  |  |  |  | B-score binding assay [1, 3]: 0.598; B-score functional assay [2, 4]: 0.071; Ranking score [2, 5]: 822.943
O=P(O)(O)C(Cl)(Cl)P(=O)(O)O [Clodronate] |  |  |  | -0.166 | 443.089 | -0.468 | 
CC(C)[C@H]1CC[C@H](C(=O)N[C@H](Cc2ccccc2)C(=O)O)CC1 [Nateglinide] |  |  |  | 0.322 | 461.181 | -1.02 | 
CCC(=O)O[C@@](Cc1ccccc1)(c1ccccc1)[C@@H](C)CN(C)C [Levopropoxyphene napsylate] |  |  |  |  |  |  | B-score binding assay [1]: 0; B-score functional assay [2]: 0.245; Ranking score [2]: 726.763
N[C@@H](C(=O)N[C@@H]1C(=O)N2C(C(=O)O)=C(Cl)CS[C@H]12)c1ccccc1.O [Cefaclor hydrate] |  |  |  | -0.309 | 381.916 | -0.668 | 
Cc1cccc(C)c1N=C1NCCCS1 [Xylazine] |  |  |  |  |  |  | B-score binding assay [1]: -0.164; B-score functional assay [2]: -0.697; Ranking score [2]: 404.611
CC(N)C(O)c1ccccc1 (stereo not drawn) [Phenylpropanolamine hydrochloride] |  |  |  |  |  |  | B-score binding assay [1]: -0.994; B-score functional assay [2]: 0.305; Ranking score [2]: 449.533
OC(CCCN1CCCCC1)(c1ccccc1)c1ccccc1 [Diphenidol hydrochloride] |  |  |  | 0.054 | 367.214 | -1.4 | 
NC[C@@H]1O[C@H](O[C@H]2[C@@H](O)[C@H](O[C@@H]3[C@@H](O)[C@H](N)C[C@H](N)[C@H]3O[C@H]3O[C@H](CN)[C@@H](O)[C@H](O)[C@H]3N)O[C@@H]2CO)[C@H](N)[C@@H](O)[C@@H]1O.O=S(=O)(O)O [Neomycin sulfate] | 0.524 | 0.497 | 912.995 |  |  |  | 

Compound | B-score binding assay [1, 6] | B-score functional assay [2, 7] | Ranking score [2, 8] | B-score binding assay [1, 9] | Ranking score [2, 10] | B-score functional assay [2, 11] | also measured
C#C[C@]1(O)CC[C@H]2[C@@H]3CCC4=CC(=O)CCC4=C3C=C[C@@]21CC [Gestrinone] |  |  |  | -0.596 | 385.482 | -0.358 | 
OCC(O)CN1CCN(c2ccccc2)CC1 (racemic) [Dropropizine (R,S)] |  |  |  |  |  |  | B-score binding assay [1, 3]: 0.054; B-score functional assay [2, 4]: 0.232; Ranking score [2, 5]: 761.407
O=C1NCCN1CCN1CCC(c2cn(-c3ccc(F)cc3)c3ccc(Cl)cc23)CC1 [Sertindole] | 0.84 | 0.957 | 1028.08 |  |  |  | 
NC[C@@H]1O[C@H](O[C@H]2[C@@H](O)[C@H](O[C@@H]3[C@@H](O)[C@H](N)C[C@H](N)[C@H]3O[C@H]3O[C@H](CO)[C@@H](O)[C@H](O)[C@H]3N)O[C@@H]2CO)[C@H](N)[C@@H](O)[C@@H]1O [Paromomycin sulfate] | 1.613 | 0.247 | 976.576 |  |  |  | 
C[N+](C)(C)CCCCCC[N+](C)(C)C.O.O.[Br-].[Br-] [Hexamethonium dibromide dihydrate] |  |  |  |  |  |  | B-score binding assay [1, 3]: 0.191; B-score functional assay [2, 4]: -0.02; Ranking score [2, 5]: 696.207
C[C@@H](c1ncncc1F)[C@](O)(Cn1cncn1)c1ccc(F)cc1F [Voriconazole] |  |  |  | -0.464 | 370.988 | -0.582 | 
CCC1=C[C@@H]2CN3CCc4c([nH]c5ccccc45)[C@@](C(=O)OC)(C2)[C@@H]13 [Catharanthine] |  |  |  | -0.047 | 448.328 | -0.613 | 
CCN(CC)C(C)C(=O)c1ccccc1 (stereo not drawn) [Amfepramone hydrochloride] | 2.906 | 0.339 | 1034.63 |  |  |  | 
COc1cc(NS(=O)(=O)c2ccc(N)cc2)nc(OC)n1 [Sulfadimethoxine] |  |  |  |  |  |  | B-score binding assay [1, 3]: -0.117; B-score functional assay [2, 4]: 0.762; Ranking score [2, 5]: 733.169
C=CCSCC1Nc2cc(Cl)c(S(N)(=O)=O)cc2S(=O)(=O)N1 (stereo not drawn) [Althiazide] | 0.861 | 0.092 | 866.45 |  |  |  | 
Nc1ncnc2c1ncn2[C@@H]1O[C@H](COP(=O)(O)O)[C@@H](O)[C@H]1O.O [Adenosine 5'-monophosphate monohydrate] | 2.827 | 0.641 | 1091.98 |  |  |  | 
CC(Oc1ccccc1)C(=O)N[C@@H]1C(=O)N2[C@@H]1SC(C)(C)[C@@H]2C(=O)[O-].[K+] (stereo partly drawn) [Phenethicillin potassium salt] |  |  |  | -0.048 | 437.958 | -0.676 | 
Cl.NCC(O)c1ccc(O)cc1 (racemic) [(+,-)-Octopamine hydrochloride] | 0.069 | 2.044 | 930.549 |  |  |  | 
CN(C)CCCN1c2ccccc2Sc2ccc(C(F)(F)F)cc21 [Triflupromazine hydrochloride] |  |  |  | -0.314 | 447.888 | -0.264 | 
C[C@]12C=CC(=O)C=C1CC[C@H]1[C@@H]3C[C@@H](O)[C@](O)(C(=O)CO)[C@@]3(C)C[C@H](O)[C@@]12F [Triamcinolone] |  |  |  |  |  |  | B-score binding assay [1, 3]: -0.283; B-score functional assay [2, 4]: 1.923; Ranking score [2, 5]: 735.139
CCOC1O[C@H]([C@@H](COCc2ccccc2)OCc2ccccc2)[C@H](OCc2ccccc2)[C@H]1O (stereo partly drawn) [Tribenoside] |  |  |  | -0.023 | 300.985 | -1.789 | 
CCn1cc(C(=O)O)c(=O)c2cc3c(cc21)OCO3 [Oxolinic acid] |  |  |  |  |  |  | B-score binding assay [1, 3]: 1.837; B-score functional assay [2, 4]: -0.139; Ranking score [2, 5]: 776.518
CN1C(=O)CCS(=O)(=O)C1c1ccc(Cl)cc1 (stereo not drawn) [Chlormezanone] | 1.516 | 0.286 | 979.274 |  |  |  | 
